This note sets out measurements from PMC11766601, “A Comparative Study of the In Vitro Intestinal Permeability of Pinnatoxins and Portimine” (Marine Drugs, 2025).

One data set concerns Caco-2 cells. Put plainly: Trans-epithelial electrical resistance (TEER) of differentiated Caco-2 monolayers. The class given is cell-based, human. On the procedure: (§1) All experiments were performed with human intestinal Caco-2 cells (ATCC-HTB37), acquired from the American Type Culture Collection (ATCC; Manassas, VA, USA). Caco-2 cells originate from a colorectal adenocarcinoma, but upon reaching confluence, they differentiate and express the characteristics of enterocytes. The cells were cultivated in minimum essential medium containing 5.5 mM D-glucose, Earle’s salts, and 2 mM L-alanyl-glutamine (MEM GlutaMAX™, Gibco, Bromont, QC, Canada) supplemented with 10% fetal bovine serum (FBS, Gibco), 1% non-essential amino acids, 50 U/mL penicillin, and 50 μg/mL streptomycin (Gibco) under humidified conditions (37 °C, 5% CO2, 95% humidity). The cells were grown for 3–4 days up to 80% confluence before trypsinization and sub-culture. For the experiments, the cells were seeded in TRANSWELL® plates (12 wells, 0.4 µm pore size; Costar®, Corning Incorporated, Corning, NY, USA) at a density of 90,000 cells/cm^2. Prior to toxin treatment, highly differentiated Caco-2 cells were obtained after 24–26 days of culture, with medium renewal every 2–3 days. Passage numbers between 30 and 40 were used for experiments.
(§2) PnTX-A, PnTX-G, PnTX-E, PnTX-H, and portimine stock solutions were prepared in methanol, while PnTX-F was provided in acetonitrile/acetic acid (50%/0.1%). For each toxin, the cells were incubated at 8, 16, and 32 ng/mL (diluted in HBSS) for 2 h, 6 h, and 24 h, with a final volume of 1.5% solvent. The controls were incubated with the cell culture medium containing the respective solvent of the toxin at 1.5%. Each experiment included three biological replicates. Two to three independent experiments were conducted.
Epithelial integrity was examined by measuring the TEER between the apical and basolateral compartments. After rinsing with a HBSS solution (HBSS, HEPES 5 mM, pH 7.4), the Caco-2 monolayers were equilibrated for 30 min at 37 °C with 300 and 1000 µL HBSS in the apical (A) and basolateral (B) chambers, respectively. Then, the content of the apical compartment was replaced with 500 µL HBSS-containing toxins. TEER was quantified with a Millipore Millicell Electrical Resistance System (ERS Millipore, EMD Millipore Corporation, Burlington, MA, USA). The mean value of two measurements per well before and after the treatment was calculated and multiplied by the surface of the insert to obtain Ω × cm^2. After blank subtraction, the results were presented as a percentage of the solvent control.

In data set [1] the test system is Caco-2 cell monolayers. Put plainly: Lucifer Yellow paracellular permeability (barrier integrity). The format is cell-based, human. The settings on record: 24 h. On the procedure:
as §1, §2
For the assay, both compartments of the insert system were washed with Hank’s balanced salt solution (HBSS). Then, 0.5 mL of 0.1 mg/mL Lucifer Yellow in HBSS buffer and 1 mL of pure HBSS buffer were added to the apical and basolateral compartments, respectively. After a 2 h incubation at 37 °C, the media of the basolateral compartments were collected and the fluorescence of each compartment was measured in triplicate (excitation: 405 nm, emission: 520 nm) with a FLUOstar Optima microplate reader (BMG Labtech, Ortenberg, Germany). After subtraction of the blank (HBSS), the permeability of the […] was calculated against the value obtained for pure LY and reported as % permeability.

Data set [2] is described as follows: Toxin crossing and apparent permeability across Caco-2 cell monolayers (A to B), LC-MS/MS. The format is in vitro ADME, human. The settings on record: human, Caco-2; for Papp at 2 h, 8 ng/mL / Papp at 6 h, 8 ng/mL: loaded 8 ng/mL; for Papp at 2 h, 8 ng/mL / Papp at 2 h, 16 ng/mL / Papp at 2 h, 32 ng/mL / Papp at 6 h, 8 ng/mL / Papp at 6 h, 16 ng/mL / Papp at 6 h, 32 ng/mL: A to B; for Papp at 2 h, 16 ng/mL / Papp at 6 h, 16 ng/mL: loaded 16 ng/mL; for Papp at 2 h, 32 ng/mL / Papp at 6 h, 32 ng/mL: loaded 32 ng/mL. On the procedure: as §1, §2
(§3) The apical and basolateral compartments were collected after 2, 6, and 24 h treatment time. Parts of the solutions that were used to load the apical compartments were also stored (T0) to take into account the real concentration and not the estimated concentration. All the samples were stored at −20 °C until LC/MS analysis.
(§4) The LC-MS/MS analysis of toxins was implemented for the quantitative analysis of toxins. The LC system was an Agilent 1200 (Agilent Technologies, Santa Clara, CA, USA). The chromatographic separation was performed using a column Hypersil GOLD® C18 50 mm × 2.1 mm, 1.9 μm (Thermo Scientific, Waltham, MA, USA). Eluent A consisted of water, and eluent B of acetonitrile/water at a ratio of 95:5 (v/v), with both eluents containing 50 mM formic acid and 2 mM ammonium formate. The LC flow rate was 0.4 mL/min, and the gradient was programmed as follows: 10% B held for 0.5 min, 10–90% B in 5 min, 90% B held for 1 min, 90–10% B in 0.5 min, and 10% B held for 3.0 min, for a total run time of 10 min. The injection volume was 5 μL, while the column temperature was maintained at 40 °C. The column effluent was transferred via a divert valve (Valco Instruments Co., Inc., Houston, TX, USA), either to the mass spectrometer (between 1.7 and 5.5 min) or to waste.
(§5) The detection system was constructed with an API 4000 triple quadrupole mass spectrometer (Sciex, Framingham, MA, USA) equipped with an ElectroSpray Ionization (ESI) source (Turbo V). The mass spectrometer was operated in positive ESI mode. The source temperature was set at 600 °C, and the spray voltage was 5500 V. Air was used as a nebulizer gas and an auxiliary gas, with a gas pressure of 40 and 60 psi, respectively. Meanwhile, the curtain gas and collision gas were nitrogen, with a gas pressure of 15 and 8 psi, respectively. The mass spectrometer was operated in multiple reaction monitoring mode (MRM). One transition was used for quantification (Q) and another as a qualifier transition (q). A mass resolution of 0.7 Da full width at half maximum (FWHD) was set on the first (Q1) and the third (Q3) quadrupoles. Instrument control and data were handled with Analyst software version 1.5.1 (Sciex, Framingham, MA, USA).
(§6) The portimine and PnTX retention times varied between 2.7 and 4.4 min (Figure S1). […]
A general note: Passage across Caco-2 layers is used to estimate intestinal permeability.

For data set [3], the system named is Caco-2 cell monolayers. The description is as above. The class given is in vitro ADME, human. As to conditions: for % theoretical amount of toxin crossing the Caco-2 cell monolayers: relative to theoretical loaded concentration; for Percentage of toxin crossing the Caco-2 cell monolayers: A to B, relative to quantified T0; for permeability / oral bioavailability class from Caco-2 Papp: threshold Papp > 1.5 × 10^−6 cm·s^−1 = highly penetrative. On the procedure:
as §1, §2, §3, §4, §5, §6

For `C=C1CCCC2=NCC(C)C(C)CC23CCC(C(=O)O)=CC3C2OC3(CC4CCCC5(CCC6(OC(CCC6(C)O)C1)O5)O4)CC(C)C(O)C2O3` (stereo not drawn) [PnTX-A], the “effect on TEER” value with Caco-2 cells (irrespective of time (2, 6, 24 h) and concentration (8, 16, 32 ng/mL)) was “no effect”. Further, the “effect on LY permeability” value in the data set with Caco-2 cell monolayers [1] (all concentrations (8, 16, 32 ng/mL)) is on record as “significant increase”. Further, the Papp (usually a coefficient for how fast a substance crosses the barrier) in data set [2] (2 and 6 h, 8-32 ng/mL, read-out: Papp, range of means) was 1.25 to 2.13 ×10⁻⁶ cm/s. In addition, the Papp at 2 h, 8 ng/mL in data set [2] amounted to 1.45 ± 1.03 ×10⁻⁶ cm/s. In addition, the apparent permeability coefficient (Papp) at 2 h, 16 ng/mL in data set [2] was found to be 1.4 ± 0.21 ×10⁻⁶ cm/s. In data set [2], the Papp at 2 h, 32 ng/mL stood at 1.25 ± 0.39 ×10⁻⁶ cm/s. Moreover, in data set [2], the Papp at 6 h, 8 ng/mL is 2.13 ± 0.38 ×10⁻⁶ cm/s. Also, the apparent permeability coefficient (Papp) at 6 h, 16 ng/mL in data set [2] stood at 1.92 ± 0.95 ×10⁻⁶ cm/s. In data set [2], the apparent permeability coefficient (Papp) at 6 h, 32 ng/mL was determined as 1.48 ± 0.41 ×10⁻⁶ cm/s. In addition, the “% theoretical amount of toxin crossing the Caco-2 cell monolayers” value in the data set with Caco-2 cell monolayers [3] (2 h, 8 ng/mL) was 2.83 ± 2.1%; with Caco-2 cell monolayers [3] (2 h, 16 ng/mL), 2.5 ± 0.33%; in the data set on Caco-2 cell monolayers [3] (2 h, 32 ng/mL), 2.60 ± 0.80%; in the data set on Caco-2 cell monolayers [3] (6 h, 8 ng/mL) it was 4.08 ± 0.52%; with Caco-2 cell monolayers [3] (6 h, 16 ng/mL), 3.42 ± 1.63%; in the data set with Caco-2 cell monolayers [3] (6 h, 32 ng/mL), 3.12 ± 1.05%. The “Percentage of toxin crossing the Caco-2 cell monolayers” value in the data set on Caco-2 cell monolayers [3] (2 h, loaded 8 ng/mL) amounted to 2.35 ± 1.66%; in the data set on Caco-2 cell monolayers [3] (2 h, loaded 16 ng/mL) it was 2.26 ± 0.34%; in the data set with Caco-2 cell monolayers [3] (2 h, loaded 32 ng/mL), 2.01 ± 0.63%; in the data set on Caco-2 cell monolayers [3] (6 h, loaded 8 ng/mL), 3.44 ± 0.62%; with Caco-2 cell monolayers [3] (6 h, loaded 16 ng/mL), 3.10 ± 1.53%; in the data set with Caco-2 cell monolayers [3] (6 h, loaded 32 ng/mL), 2.39 ± 0.65%. Also, the “amount of toxin crossing the intestinal barrier in vitro” value in the data set on Caco-2 cell monolayers [3] (regardless of the concentration loaded, 2 and 6 h) is given as less than 4%. Besides, in the data set on Caco-2 cell monolayers [3], the “permeability / oral bioavailability class from Caco-2 Papp” value is on record as “poor permeability”.

With `C=CC1=CC2C3OC4(CC(C)CC3O4)CC3OC4(CCC5(OC(CCC5(C)O)CC(=C)CCCC5=NCC(C)C(C)CC52CC1)O4)CC(C)C3O` (stereo not drawn) [PnTX-H, Pinnatoxin H], in the data set with Caco-2 cells (24 h, 32 ng/mL), the “effect on TEER” value is recorded as “slight, but non-significant, decrease”. For the same molecule, the “effect on passage of LY” value in the data set with Caco-2 cell monolayers [1] is on record as “lower effect”. Moreover, in the data set on Caco-2 cell monolayers [1] (32 ng/mL only), the “effect on LY permeability” value is recorded as “significant increase”. For the same molecule, the apparent permeability coefficient (Papp) at 2 h, 8 ng/mL in data set [2] stood at 19.5 ± 3.14 ×10⁻⁶ cm/s. The Papp at 2 h, 16 ng/mL in data set [2] came out at 13.7 ± 4.83 ×10⁻⁶ cm/s. For the same molecule, in data set [2], the apparent permeability coefficient (Papp) at 2 h, 32 ng/mL was 18 ± 2.19 ×10⁻⁶ cm/s. In addition, the apparent permeability (Papp) at 6 h, 8 ng/mL in data set [2] stood at 36 ± 5.4 ×10⁻⁶ cm/s. In data set [2], the Papp at 6 h, 16 ng/mL was 30.3 ± 6.69 ×10⁻⁶ cm/s. The apparent permeability (Papp) at 6 h, 32 ng/mL in data set [2] worked out at 33.6 ± 2.43 ×10⁻⁶ cm/s. In addition, the “% theoretical amount of toxin crossing the Caco-2 cell monolayers” value in the data set on Caco-2 cell monolayers [3] (2 h, 8 ng/mL) came to 3.96 ± 0.19%; in the data set on Caco-2 cell monolayers [3] (2 h, 16 ng/mL), 3.21±0.94%; with Caco-2 cell monolayers [3] (2 h, 32 ng/mL), 4.32 ± 1.10%; in the data set on Caco-2 cell monolayers [3] (6 h, 8 ng/mL), 7.37 ± 1.42%; with Caco-2 cell monolayers [3] (6 h, 16 ng/mL), 7.10 ± 0.79%; in the data set with Caco-2 cell monolayers [3] (6 h, 32 ng/mL), 8.04 ± 1.80%. Further, the “Percentage of toxin crossing the Caco-2 cell monolayers” value is reported as 31.52 ± 5.07% in the data set on Caco-2 cell monolayers [3] (2 h, loaded 8 ng/mL); 22.05 ± 7.80% with Caco-2 cell monolayers [3] (2 h, loaded 16 ng/mL); 29.07 ± 3.54% with Caco-2 cell monolayers [3] (2 h, loaded 32 ng/mL); 58.06 ± 8.71% in the data set on Caco-2 cell monolayers [3] (6 h, loaded 8 ng/mL); 48.83 ± 11.22% in the data set on Caco-2 cell monolayers [3] (6 h, loaded 16 ng/mL); 54.22 ± 3.91% in the data set with Caco-2 cell monolayers [3] (6 h, loaded 32 ng/mL). Moreover, in the data set on Caco-2 cell monolayers [3], the “permeability / oral bioavailability class from Caco-2 Papp” value was “high oral bioavailability”.
